# Laboratory results reported in ChEMBL document CHEMBL5543075, “Phenoxytacrine derivatives: Low-toxicity neuroprotectants exerting affinity to ifenprodil-binding site and cholinesterase inhibition” (Eur J Med Chem, 2024).
# Experiments:
# [1] = target: T1, Glutamate NMDA receptor; GRIN1/GRIN2B (Homo sapiens, UniProt Q05586+Q13224); assay: Inhibition of recombinant human GluN1/GluN2B receptor expressed in HEK293 cells assessed as reduction in glutamate induced current at -20 mV holding potential by electrophysiology assay; assay type: cell-based
# [2] = target: T1, Glutamate NMDA receptor; GRIN1/GRIN2B; assay: Inhibition of recombinant human GluN1/GluN2B receptor expressed in HEK293 cells assessed as reduction in glutamate induced current at 1 uM at -60 mV holding potential by electrophysiology assay relative to control; assay type: cell-based
# [3] = Cytotoxicity against CHO-K1 cells incubated for 24 hrs by MTT assay; assay type: toxicity, cell-based, Cricetulus griseus; details: Chinese hamster
compound,measurement,setting,value
Nc1c2c(nc3ccc(Oc4ccccc4)cc13)CCCC2,IC50,[1],~2 µM
same,inhibition,[2],33.1%
same,IC50 at 24 h,[3],31 µM
